In brackets after ≈: the same amount, converted by molar mass. Read-outs that look alike come from different tables or passages of the source.
Assays:
TYK2-JH2 domain = molecular target: T1, TYK2-JH2 domain (Homo sapiens, UniProt P29597); assay: Binding activity test for JH2 domain of TYK2 (Tb-antibody/tracer FRET); conditions: for IC50: JH2 domain enzyme, 60 min at 25°C, then 4°C overnight, read-out: TYK2 JH2 Binding IC50; for JAK1/TYK2 selectivity: ratio of JAK1 JH2 to TYK2 JH2 binding IC50
T1 construct: JAK1-JH2 domain or TYK2-JH2 domain enzyme in assay buffer
Method in brief: (§1)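 Competitive TR-FRET binding: compounds dispensed as an 11-point 3-fold dilution series, then Tb-labelled antibody and tracer added to the JH2 protein system. Incubated at 25°C, then overnight at 4°C; FRET signal read on Envision and IC50 (nM) derived.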

[1] = system: Ba/F3-FL-TYK2-P760L cells; assay: Anti-proliferative assay in engineered Ba/F3 cells (Cell-Titer Glo, 72 h); type: cell-based; conditions: 72 h compound treatment, concentration that causes 50% growth inhibition, read-out: Baf3-FL-T2P760L
Method in brief: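 Ba/F3 cells carrying Tel-dimerization/JAK kinase fusion, IL-3-independent, in RPMI-1640 + 10% FBS; 9-point 3-fold dilutions from 20 µM (0.1% DMSO) added after 24 h, 72 h at 37 °C. Viability by Cell-Titer Glo ATP luminescence; % inhibition versus DMSO cells, blank-corrected, giving IC50.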

Kinetic solubility = type: physicochemical; conditions: 100 mM pH 7.4 phosphate buffer, 1% DMSO, room temperature, read-out: Kinetics Solubility_PBS7.4
Procedure: Aliquots of 8 µL of reference and test compound stock solutions (10 mM/5 mM) are added into 792 µL of 100 mM pH 7.4 phosphate buffer. The final DMSO concentration is 1%. Sample tubes are shaken for 2 hours at 1000 rpm at room temperature. Samples are centrifuged at 12000 rpm for 10 min to precipitate un-dissolved particles. And transfer the supernatants to a new tube or plate. Add 5 µL of samples (no diluted, 10 times diluted, and 100 times diluted) and standard curve samples to 95 µL of ACN containing IS for LC-MS/MS analysis. Kinetic Solubilities Values of Exemplary Compounds

[2] = Microsomal metabolic stability assay; type: in vitro ADME; conditions: human, liver microsomes, pH 7.4, 0.5 mg/mL microsomal protein, 1 µM test article, 2 mM NADPH; for microsomal CLint at 1 µM: read-out: Human LM Clint; for half-life at 1 µM: read-out: Human LM T1/2
Procedure: Microsomes were pre-incubated with test compound or control compounds for 5 min at 37°C in 100 mM potassium phosphate buffer, pH 7.4, 1.0 mM EDTA. The reaction was initiated by addition of 15 µL of the NADPH regenerating system to 30 µL of each incubation mixture per time point. The final incubation condition was composed of 0.5 mg/mL microsomal protein, 1 µM test article/positive control, 2 mM NADPH. The 0-minute samples were prepared by addition of a 30 µL aliquot of each incubation mixture to 135 µL quench reagent to precipitate proteins. And then a 15 µL aliquot of the NADPH regenerating system was added. At 5, 15, 30 and 45 minutes, the reaction will be stopped by the addition of cold acetonitrile solution containing internal standard. The samples taken at all time points were centrifuged at 5000×g for 15 minutes. 50 µL of supernatant are taken into 96-well assay plates pre-added with 50 µL ultrapure water, and then analyzed by LC/MS/MS.
Concentrations of test articles, control compounds in the samples were determined by using LC/MS/MS method. Plotting of the chromatograms and peak area integrations are carried out by Analyst (AB Sciex).
In the determination of the in vitro elimination constant (ke) of the control compounds, the analyte/internal standard peak area ratios will be converted to percentage remaining (%Remaining) with the following equation: %Remaining = (Peak area ratio of analyte to IS at each time point)/(Peak area ratio of analyte to IS at t = 0) × 100% [formula]
The CLint of microsomes was calculated using the formula: CLint (mic)=0.693/T1/2 /mg microsome protein per mL. The slope was measured by the natural logarithm of the percentage of the residual compound and time, T1/2 was calculated according to the following formula. T = (0.693)/(−slope) [formula]

JAK1-JH2 domain = molecular target: T2, JAK1-JH2 domain (Homo sapiens, UniProt P23458); assay: Binding activity test for JH2 domain of JAK1 (Tb-antibody/tracer FRET); conditions: JH2 domain enzyme; 60 min at 25°C, then 4°C overnight; read-out: JAK1 JH2 Binding IC50
T2 construct: JAK1-JH2 domain or TYK2-JH2 domain enzyme in assay buffer
Method in brief: as §1

pSTAT1 = assay: Phosphorylation inhibition of STAT in human whole blood (IFN-alpha stimulated, flow cytometry); type: cell-based; conditions: T-cell, 20 min, IFN-alpha stimulation 20 mins, CD3 T cells, read-out: pSTAT1 inhibition in hWB (IC50)
Procedure: The inhibitory potential of test articles in human whole blood assay was evaluated by the method of flow cytometry.
IFN-alpha will activate JAK1 and TYK2 kinase in T cells by binding to IFN receptors, and then lead to phosphorylation of STAT1 and STAT2. The phosphorylated STAT1 enter nuclear and promote transcription and expression of IFN-gamma. To evaluate the efficacy of TYK2i in T cells, freshly collected human whole blood will be stimulated with certain unit of human IFN-alpha (Universal Type I IFN(1MU), R&D, 11200-2) for 20 mins in incubator. After stimulation, fix cells with Phosflow™ Fix Buffer I (BD, 557870), and then collect fixed cells by centrifugation (500 g, 8min). Wash cells once with pre-cooled PBS, and then permeabilize cells with cold Perm Buffer III buffer (BD, 558050) for 45 mins on ice. Collect cells by centrifugation (600 g, 8min) and washed twice with cold PBS. Stain cells with anti-human CD3(FITC Mouse Anti-Human CD3, BD, 555332) and anti-pSTAT1_Y701(Alexa Fluor 647 Mouse Anti-Stat1 (pY701), BD, 612597) antibodies. Detect pSTAT1 by flow cytometry (CytoFlex S) and analyze data with FlowJo and GraphPad Prism 8 software. IC50 values of test articles were determined using 4- parameter logistic equation.

[3] = phosphate buffer, pH 7.4, aqueous buffer, kinetic from dmso stock

T2 sequence (P23458 583-855 limits assumed): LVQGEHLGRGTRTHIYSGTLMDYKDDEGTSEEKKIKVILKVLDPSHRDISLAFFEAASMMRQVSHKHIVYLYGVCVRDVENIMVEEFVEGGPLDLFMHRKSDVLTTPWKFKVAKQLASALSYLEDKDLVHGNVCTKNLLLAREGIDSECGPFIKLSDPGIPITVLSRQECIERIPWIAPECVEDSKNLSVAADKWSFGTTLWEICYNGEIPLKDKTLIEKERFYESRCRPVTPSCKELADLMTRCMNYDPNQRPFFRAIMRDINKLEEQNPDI
T1 sequence (P29597 589-875 limits assumed): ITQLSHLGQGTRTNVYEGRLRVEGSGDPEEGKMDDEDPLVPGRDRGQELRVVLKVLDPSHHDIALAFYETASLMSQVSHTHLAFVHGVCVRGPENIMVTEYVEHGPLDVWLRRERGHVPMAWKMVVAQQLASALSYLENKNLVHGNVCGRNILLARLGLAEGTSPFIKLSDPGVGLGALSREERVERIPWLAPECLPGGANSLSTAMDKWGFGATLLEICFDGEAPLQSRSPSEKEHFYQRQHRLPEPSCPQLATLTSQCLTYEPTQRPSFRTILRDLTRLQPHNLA

Compound | IC50 (TYK2-JH2 domain) [nM] | JAK1/TYK2 selectivity (TYK2-JH2 domain) | IC50 ([1]; Mus musculus, BaF3, 72 h) [nM] | solubility kinetic at 2 h (Kinetic solubility; [3]) [µM] | microsomal CLint at 1 µM [2] [µL/min/mg] | half-life at 1 µM [2] [h] | IC50 (JAK1-JH2 domain) [nM] | IC50 (pSTAT1) [nM] | IC50 [1] [nM] | solubility kinetic at 2 h (Kinetic solubility) [µM]
[2H]C([2H])([2H])NC(=O)c1cnc(NC(=O)[C@@H]2C[C@@H]2F)cc1Nc1cnn2cnc(C(C)C(F)(F)F)c(OC)c12 (stereo partly drawn) [Example 38, 6-((1S,2S)-2-fluorocyclopropane-1-carboxamido)-4-((4-methoxy-5-(1,1,1-trifluoropropan-2-yl)pyrazolo[1,5-c]pyrimidin-3-yl)amino)-N-(methyl-d3)nicotinamide] | 0.761 | 188.7 | 1340 | 37.2 (≈ 18.5 µg/mL) | 7.34 | 3.15 | 144 |  |  | 
[2H]C([2H])([2H])NC(=O)c1cnc(NC(=O)C2CC2)cc1Nc1cnn2ccc(CC(F)(F)F)c(OC)c12 [Example 8, 6-(Cyclopropanecarboxamido)-4-((4-methoxy-5-(2,2,2-trifluoroethyl)pyrazolo[1,5-a]pyridin-3-yl)amino)-N-(methyl-d3)nicotinamide] | 0.106 | 32.0 | 31.3 | 18.6 (≈ 8.63 µg/mL) |  |  | 3.39 | 75.5 |  | 
[2H]C([2H])([2H])NC(=O)c1cnc(NC(=O)C2CC2)cc1Nc1cnn2ccc(Cl)c(OC)c12 [Example 3, 4-((5-Chloro-4-methoxypyrazolo[1,5-a]pyridin-3-yl)amino)-6-(cyclopropanecarboxamido)-N-(methyl-d3)nicotinamide] | 0.223 | 59.9 | 43.6 | 15.1 (≈ 6.31 µg/mL) |  |  | 13.4 | 177 |  | 
[2H]C([2H])([2H])NC(=O)c1cnc(NC(=O)C2CC2)cc1Nc1cnn2ccc(CC(C)(F)F)c(OC)c12 [Example 20, 6-(Cyclopropanecarboxamido)-4-((5-(2,2-difluoropropyl)-4-methoxypyrazolo[1,5-a]pyridin-3-yl)amino)-N-(methyl-d3)nicotinamide] | 0.058 | 235.2 | 23.1 | 15 (≈ 6.92 µg/mL) |  |  | 13.6 |  |  | 
[2H]C([2H])([2H])NC(=O)c1cnc(NC(=O)C2CC2)cc1Nc1cn(C)c2ccc(CC)c(OC)c12 [Example 2, 6-(Cyclopropanecarboxamido)-4-((5-ethyl-4-methoxy-1-methyl-1H-indol-3-yl)amino)-N-(methyl-d3)nicotinamide] | 0.333 | 15.7 | 17 | 15.3 (≈ 6.5 µg/mL) |  |  | 5.24 | 141 |  | 
[2H]C([2H])([2H])NC(=O)c1cnc(NC(=O)C2CC2)cc1Nc1cnn2ccc(C#N)c(OC)c12 [Example 12, 4-((5-Cyano-4-methoxypyrazolo[1,5-a]pyridin-3-yl)amino)-6-(cyclopropanecarboxamido)-N-(methyl-d3)nicotinamide] | 0.308 | 68.5 | 194 | 15.1 (≈ 6.18 µg/mL) |  |  | 21.1 |  |  | 
[2H]C([2H])([2H])NC(=O)c1cnc(NC(=O)[C@@H]2C[C@@H]2F)cc1Nc1cnn2ccc(C#N)c(OC)c12 [Example 13, 4-((5-Cyano-4-methoxypyrazolo[1,5-a]pyridin-3-yl)amino)-6-((1S,2S)-2-fluorocyclopropane-1-carboxamido)-N-(methyl-d3)nicotinamide] | 0.172 | 122.0 | 131 | 11.2 (≈ 4.77 µg/mL) | 22 | 1.05 | 21 |  |  | 
[2H]C([2H])([2H])NC(=O)c1cnc(NC(=O)C2CC2)cc1Nc1nn(C)c2ccc([C@@H](O)C(F)(F)F)c(OC)c12 [Example 49B, (R)-6-(cyclopropanecarboxamido)-4-((4-methoxy-1-methyl-5-(2,2,2-trifluoro-1-hydroxyethyl)-1H-indazol-3-yl)amino)-N-(methyl-d3)nicotinamide] | 0.211 | 28.76 | 18 | 37.5 (≈ 18.6 µg/mL) |  |  | 6.07 |  |  | 
[2H]C([2H])([2H])NC(=O)c1cnc(NC(=O)C2CC2)cc1Nc1cnn2ccc(C(C)C(F)(F)F)c(OC)c12 (single isomer, unassigned) [Example 9B, (S*)-6-(cyclopropanecarboxamido)-4-((4-methoxy-5-(1,1,1-trifluoropropan-2-yl)pyrazolo[1,5-a]pyridin-3-yl)amino)-N-(methyl-d3)nicotinamide] | 0.08 | 63.0 |  | 45.4 (≈ 21.7 µg/mL) |  |  | 5.04 | 290 | 54.2 | 
[2H]C([2H])([2H])NC(=O)c1cnc(NC(=O)C2CC2)cc1Nc1cnn2ccc(C(O)C(F)(F)F)c(OC)c12 (centres unmarked) [Example 7, 6-(Cyclopropanecarboxamido)-4-((4-methoxy-5-(2,2,2-trifluoro-1-hydroxyethyl)pyrazolo[1,5-a]pyridin-3-yl)amino)-N-(methyl-d3)nicotinamide] | 0.147 | 74.9 | 9.32 | 42.9 (≈ 20.7 µg/mL) |  |  | 11 | 67.4 |  | 
[2H]C([2H])([2H])NC(=O)c1cnc(NC(=O)C2CC2)cc1Nc1cnn2ccc(C(C)C(F)(F)F)c(OC)c12 (single isomer, unassigned) [Example 9A, (R*) -6-(cyclopropanecarboxamido)-4-((4-methoxy-5-(1,1,1-trifluoropropan-2-yl)pyrazolo[1,5-a]pyridin-3-yl)amino)-N-(methyl-d3)nicotinamide] | 0.424 | 91.9 |  |  |  |  | 39 |  | 2140 | 35.80 (≈ 17.2 µg/mL)
[2H]C([2H])([2H])NC(=O)c1cnc(NC(=O)C2CC2)cc1Nc1cnn2ccc(COC([2H])([2H])[2H])c(OC)c12 [Example 29, 6-(Cyclopropanecarboxamido)-4-((4-methoxy-5-((methoxy-d3)methyl)pyrazolo[1,5-a]pyridin-3-yl)amino)-N-(methyl-d3)nicotinamide] | 0.219 | 76.4 | 80.9 | 67.2 (≈ 28.9 µg/mL) | 27.9 | 0.827 | 16.7 |  |  | 
